Source: patent publication US20110082130A1 (LIGAND PHARMACEUTICALS, INC., priority 2006, published 2011)

Molecular target: T1, chimeric human H3 receptor (Homo sapiens, UniProt Q9Y5N1)
T1 construct: made in house; host or cells: Sf9 insect cells (baculovirus); P2 membrane preparation
Experiment: Chimeric human H3 receptor GTP binding assay (agonist-stimulated GTP-gamma35S binding, Example 7)
Format: biochemical
Conditions: assay of Example 7; "*" in Ki of Table II
In short: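 Sf9 membranes co-expressing chimeric human H3 receptor and heterotrimeric G-protein, 35 μg/tube, in pH 7.4 Tris buffer with 10 μM GDP. Test compounds (10^−10–10^−6 M) competed against 1 μM histamine, […] GTP-gamma35S, 60 min at room temperature. Filter-bound radioactivity counted; IC50 converted to Ki by Cheng-Prusoff. Agonism/inverse agonism tested without histamine (EC50).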

T1 sequence (Q9Y5N1 with tags, fused parts or gaps): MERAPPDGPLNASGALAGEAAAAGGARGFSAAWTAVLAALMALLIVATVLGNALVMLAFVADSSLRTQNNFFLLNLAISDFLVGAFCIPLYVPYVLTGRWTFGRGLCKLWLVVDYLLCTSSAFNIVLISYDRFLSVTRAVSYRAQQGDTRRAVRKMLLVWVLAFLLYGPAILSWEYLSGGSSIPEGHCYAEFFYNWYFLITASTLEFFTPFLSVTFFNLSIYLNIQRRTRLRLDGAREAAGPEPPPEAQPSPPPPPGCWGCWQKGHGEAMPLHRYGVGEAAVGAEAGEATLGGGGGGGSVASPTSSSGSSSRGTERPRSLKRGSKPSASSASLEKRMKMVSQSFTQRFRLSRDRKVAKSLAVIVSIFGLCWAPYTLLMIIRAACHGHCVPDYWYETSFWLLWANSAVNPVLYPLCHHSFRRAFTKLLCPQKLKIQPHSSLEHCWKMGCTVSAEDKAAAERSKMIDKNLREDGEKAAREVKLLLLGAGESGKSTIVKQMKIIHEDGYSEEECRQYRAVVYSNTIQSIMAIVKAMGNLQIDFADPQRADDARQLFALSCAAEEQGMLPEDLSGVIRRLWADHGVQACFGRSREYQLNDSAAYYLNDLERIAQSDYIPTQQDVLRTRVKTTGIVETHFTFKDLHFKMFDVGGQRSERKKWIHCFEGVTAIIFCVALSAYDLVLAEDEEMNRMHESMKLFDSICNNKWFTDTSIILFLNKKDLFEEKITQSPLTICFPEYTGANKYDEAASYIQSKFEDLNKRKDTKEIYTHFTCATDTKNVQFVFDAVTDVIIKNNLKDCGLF

Ki	SMILES
< 1000 nM	COc1ccc(OC)c(-c2nc3c(s2)CN(CC(=O)N2CCN(C4CCC4)CC2)CC3)c1 [Compound 339, 5-[2-(4-cyclobutylpiperazin-1-yl)-2-oxoethyl]-2-(2,5-dimethoxyphenyl)-4,5,6,7-tetrahydro[1,3]thiazolo [5,4-c]pyridine]
< 1000 nM	COc1ccc(-c2nc3c(s2)CN(CC(=O)N2CCN(C4CCC4)CC2)CC3)c(OC)c1 [Compound 340, 5-[2-(4-cyclobutylpiperazin-1-yl)-2-oxoethyl]-2-(2,4-dimethoxyphenyl)-4,5,6,7-tetrahydro[1,3]thiazolo [5,4-c]pyridine]
< 1000 nM	CCOc1ccccc1-c1nc2c(s1)CN(CC(=O)N1CCN(C3CCC3)CC1)CC2 [Compound 341, 5-[2-(4-cyclobutylpiperazin-1-yl)-2-oxoethyl]-2-(2-ethoxyphenyl)-4,5,6,7-tetrahydro[1,3]thiazolo [5,4-c]pyridine]
< 1000 nM	O=C(CN1CCc2nc(-c3cccc4c3oc3ccccc34)sc2C1)N1CCN(C2CCC2)CC1 [Compound 342, 5-[2-(4-cyclobutylpiperazin-1-yl)-2-oxoethyl]-2-dibenzo[b,d]furan-4-yl-4,5,6,7-tetrahydro[1,3]thiazolo [5,4-c]pyridine]
< 1000 nM	COc1ccc(C)cc1-c1nc2c(s1)CN(CC(=O)N1CCN(C3CCC3)CC1)CC2 [Compound 344, 5-[2-(4-cyclobutylpiperazin-1-yl)-2-oxoethyl]-2-(2-methoxy-5-methylphenyl)-4,5,6,7-tetrahydro[1,3]thiazolo [5,4-c]pyridine]
< 1000 nM	O=C(CN1CCc2nc(-c3ccc(F)c(Cl)c3)sc2C1)N1CCN(C2CCC2)CC1 [Compound 346, 2-(3-chloro-4-fluorophenyl)-5-[2-(4-cyclobutylpiperazin-1-yl)-2-oxoethyl]-4,5,6,7-tetrahydro[1,3]thiazolo [5,4-c]pyridine]
< 1000 nM	O=C(CN1CCc2nc(-c3cc(F)ccc3F)sc2C1)N1CCN(C2CCC2)CC1 [Compound 347, 5-[2-(4-cyclobutylpiperazin-1-yl)-2-oxoethyl]-2-(2,5-difluorophenyl)-4,5,6,7-tetrahydro[1,3]thiazolo [5,4-c]pyridine]
< 1000 nM	O=C(CN1CCc2nc(-c3ccc(F)cc3F)sc2C1)N1CCN(C2CCC2)CC1 [Compound 348, 5-[2-(4-cyclobutylpiperazin-1-yl)-2-oxoethyl]-2-(2,4-difluorophenyl)-4,5,6,7-tetrahydro[1,3]thiazolo [5,4-c]pyridine]
< 1000 nM	O=C(CN1CCc2nc(-c3ccc(F)c(F)c3)sc2C1)N1CCN(C2CCC2)CC1 [Compound 349, 5-[2-(4-cyclobutylpiperazin-1-yl)-2-oxoethyl]-2-(3,4-difluorophenyl)-4,5,6,7-tetrahydro[1,3]thiazolo [5,4-c]pyridine]
< 1000 nM	O=C(CN1CCc2nc(-c3cc(Cl)cc(Cl)c3)sc2C1)N1CCN(C2CCC2)CC1 [Compound 350, 5-[2-(4-cyclobutylpiperazin-1-yl)-2-oxoethyl]-2-(3,5-dichlorophenyl)-4,5,6,7-tetrahydro[1,3]thiazolo [5,4-c]pyridine]
< 1000 nM	O=C(CN1CCc2nc(-c3ccc(Cl)cc3F)sc2C1)N1CCN(C2CCC2)CC1 [Compound 351, 2-(4-chloro-2-fluorophenyl)-5-[2-(4-cyclobutylpiperazin-1-yl)-2-oxoethyl]-4,5,6,7-tetrahydro[1,3]thiazolo [5,4-c]pyridine]
< 1000 nM	O=C(CN1CCc2nc(-c3ccc(Cl)c(F)c3)sc2C1)N1CCN(C2CCC2)CC1 [Compound 352, 2-(4-chloro-3-fluorophenyl)-5-[2-(4-cyclobutylpiperazin-1-yl)-2-oxoethyl]-4,5,6,7-tetrahydro[1,3]thiazolo [5,4-c]pyridine]
< 1000 nM	O=C(CN1CCc2nc(-c3c(F)cccc3F)sc2C1)N1CCN(C2CCC2)CC1 [Compound 353, 5-[2-(4-cyclobutylpiperazin-1-yl)-2-oxoethyl]-2-(2,6-difluorophenyl)-4,5,6,7-tetrahydro[1,3]thiazolo [5,4-c]pyridine]
< 1000 nM	O=C(CN1CCc2nc(-c3ccc(Cl)c(Cl)c3)sc2C1)N1CCN(C2CCC2)CC1 [Compound 354, 5-[2-(4-cyclobutylpiperazin-1-yl)-2-oxoethyl]-2-(3,4-dichlorophenyl)-4,5,6,7-tetrahydro[1,3]thiazolo [5,4-c]pyridine]
< 1000 nM	O=C(CN1CCc2nc(-c3cc(F)cc(F)c3)sc2C1)N1CCN(C2CCC2)CC1 [Compound 355, 5-[2-(4-cyclobutylpiperazin-1-yl)-2-oxoethyl]-2-(3,5-difluorophenyl)-4,5,6,7-tetrahydro[1,3]thiazolo [5,4-c]pyridine]
< 1000 nM	O=C(CN1CCc2nc(-c3cccc(F)c3F)sc2C1)N1CCN(C2CCC2)CC1 [Compound 356, 5-[2-(4-cyclobutylpiperazin-1-yl)-2-oxoethyl]-2-(2,3-difluorophenyl)-4,5,6,7-tetrahydro[1,3]thiazolo [5,4-c]pyridine]

Ki	SMILES
< 1000 nM	O=C(CN1CCc2nc(-c3ccccc3Cl)sc2C1)N1CCN(C2CCC2)CC1 [Compound 357, 2-(2-chlorophenyl)-5-[2-(4-cyclobutylpiperazin-1-yl)-2-oxoethyl]-4,5,6,7-tetrahydro[1,3]thiazolo [5,4-c]pyridine]
< 1000 nM	O=C(CN1CCc2nc(-c3cccc(Cl)c3Cl)sc2C1)N1CCN(C2CCC2)CC1 [Compound 358, 5-[2-(4-cyclobutylpiperazin-1-yl)-2-oxoethyl]-2-(2,3-dichlorophenyl)-4,5,6,7-tetrahydro[1,3]thiazolo [5,4-c]pyridine]
< 1000 nM	O=C(CN1CCc2nc(-c3ccc(Cl)cc3Cl)sc2C1)N1CCN(C2CCC2)CC1 [Compound 359, 5-[2-(4-cyclobutylpiperazin-1-yl)-2-oxoethyl]-2-(2,4-dichlorophenyl)-4,5,6,7-tetrahydro[1,3]thiazolo [5,4-c]pyridine]
< 1000 nM	O=C(CN1CCc2nc(-c3ccccc3C(F)(F)F)sc2C1)N1CCN(C2CCC2)CC1 [Compound 360, 5-[2-(4-cyclobutylpiperazin-1-yl)-2-oxoethyl]-2-[2-(trifluoromethyl)phenyl]-4,5,6,7-tetrahydro[1,3]thiazolo [5,4-c]pyridine]
< 1000 nM	COc1cccc(OC)c1-c1nc2c(s1)CN(CC(=O)N1CCN(C3CCC3)CC1)CC2 [Compound 361, 5-[2-(4-cyclobutylpiperazin-1-yl)-2-oxoethyl]-2-(2,6-dimethoxyphenyl)-4,5,6,7-tetrahydro[1,3]thiazolo [5,4-c]pyridine]
< 1000 nM	CC(C)c1ccccc1-c1nc2c(s1)CN(CC(=O)N1CCN(C3CCC3)CC1)CC2 [Compound 362, 5-[2-(4-cyclobutylpiperazin-1-yl)-2-oxoethyl]-2-(2-isopropylphenyl)-4,5,6,7-tetrahydro[1,3]thiazolo [5,4-c]pyridine]
< 1000 nM	Cc1cccc(C)c1-c1nc2c(s1)CN(CC(=O)N1CCN(C3CCC3)CC1)CC2 [Compound 363, 5-[2-(4-cyclobutylpiperazin-1-yl)-2-oxoethyl]-2-(2,6-dimethylphenyl)-4,5,6,7-tetrahydro[1,3]thiazolo [5,4-c]pyridine]
< 1000 nM	O=C(CN1CCc2nc(-c3cc(Cl)ccc3Cl)sc2C1)N1CCN(C2CCC2)CC1 [Compound 364, 5-[2-(4-cyclobutylpiperazin-1-yl)-2-oxoethyl]-2-(2,5-dichlorophenyl)-4,5,6,7-tetrahydro[1,3]thiazolo [5,4-c]pyridine]
< 1000 nM	Cc1ccc(F)c(-c2nc3c(s2)CN(CC(=O)N2CCN(C4CCC4)CC2)CC3)c1Cl [Compound 365, 2-(2-chloro-6-fluoro-3-methylphenyl)-5-[2-(4-cyclobutylpiperazin-1-yl)-2-oxoethyl]-4,5,6,7-tetrahydro[1,3]thiazolo [5,4-c]pyridine]
< 1000 nM	Cc1cc(C)c(-c2nc3c(s2)CN(CC(=O)N2CCN(C4CCC4)CC2)CC3)c(C)c1 [Compound 366, 5-[2-(4-cyclobutylpiperazin-1-yl)-2-oxoethyl]-2-mesityl-4,5,6,7-tetrahydro[1,3]thiazolo [5,4-c]pyridine]
< 1000 nM	N#Cc1cccc(-c2nc3c(s2)CN(CC(=O)N2CCN(C4CCC4)CC2)CC3)c1 [Compound 367, 3-{5-[2-(4-cyclobutylpiperazin-1-yl)-2-oxoethyl]-4,5,6,7-tetrahydro[1,3]thiazolo [5,4-c]pyridin-2-yl}benzonitrile]
< 1000 nM	N#Cc1ccc(-c2nc3c(s2)CN(CC(=O)N2CCN(C4CCC4)CC2)CC3)cc1 [Compound 368, 4-{5-[2-(4-cyclobutylpiperazin-1-yl)-2-oxoethyl]-4,5,6,7-tetrahydro[1,3]thiazolo [5,4-c]pyridin-2-yl}benzonitrile]
< 1000 nM	O=C(CN1CCc2nc(-c3ccc(C(F)(F)F)cc3)sc2C1)N1CCN(C2CCC2)CC1 [Compound 369, 5-[2-(4-cyclobutylpiperazin-1-yl)-2-oxoethyl]-2-[4-(trifluoromethyl)phenyl]-4,5,6,7-tetrahydro[1,3]thiazolo [5,4-c]pyridine]
< 1000 nM	CC(=O)c1cccc(-c2nc3c(s2)CN(CC(=O)N2CCN(C4CCC4)CC2)CC3)c1 [Compound 370, 1-(3-{5-[2-(4-cyclobutylpiperazin-1-yl)-2-oxoethyl]-4,5,6,7-tetrahydro[1,3]thiazolo [5,4-c]pyridin-2-yl}phenyl)ethanone]
< 1000 nM	O=C(CN1CCc2nc(-c3cc(C(F)(F)F)cc(C(F)(F)F)c3)sc2C1)N1CCN(C2CCC2)CC1 [Compound 371, 2-[3,5-bis(trifluoromethyl)phenyl]-5-[2-(4-cyclobutylpiperazin-1-yl)-2-oxoethyl]-4,5,6,7-tetrahydro[1,3]thiazolo [5,4-c]pyridine]
< 1000 nM	O=C(CN1CCc2nc(-c3cccc(C(F)(F)F)c3)sc2C1)N1CCN(C2CCC2)CC1 [Compound 372, 5-[2-(4-cyclobutylpiperazin-1-yl)-2-oxoethyl]-2-[3-(trifluoromethyl)phenyl]-4,5,6,7-tetrahydro[1,3]thiazolo [5,4-c]pyridine]
